# According to US12551418B2, “Cosmetic containing ultraviolet wavelength converting substance and medicinal agent” (Shiseido Company, Ltd., priority 2019, dated 2026):
# Assays:
# Human dermal fibroblasts [1] = experiment: Influence of C-phycocyanin concentration and UV intensity on cell activity (Example 2); assay type: cell-based; settings: UV 0-100 mJ/cm^2
# Description: (§1) A cell sample was prepared as follows: • 1. Human dermal fibroblasts and human skin keratinocytes purchased from Kurabo Industries Ltd. were used. A cell suspension (1 mL) stored in liquid nitrogen was thawed in a water bath (37° C.) to an extent that small ice pellets remained, and then diluted with 9 mL of warm medium. • 2. The diluted suspension was mixed gently and then transferred to a T75 flask and incubated overnight at 37° C. • 3. The next day, the medium was replaced with 10 mL of fresh medium. • 4. The medium was replaced periodically (once every 2 days for fibroblasts and once every 2 to 3 days for keratinocytes) and cell proliferation was continued. Meanwhile, the cells were observed using a microscope, and it was confirmed that the cells grew in the correct form. • 5. After the cells reached about 80% confluence, the cells were passaged. The cells were passaged by washing the cells once with 10 mL of warm PBS, adding 5 mL of warm trypsin to a T75 flask, covering the bottom of the flask with a trypsin solution, followed by aspirating at room temperature for 1 minute. • 6. The flask was allowed to stand in an oven at 37° C. for (maximum) 2 minutes for fibroblasts and (maximum) 7 minutes for keratinocytes. The cells were observed using a microscope and confirmed to be small and oval. • 7. Thereafter, the side of the T75 flask was lightly tapped to release the cells. […]
# Human dermal fibroblasts [2] = experiment: Restoration of cell activity decreased by UV irradiation (Example 3); assay type: cell-based; settings: cells pre-irradiated 400 mJ/cm^2 without substance, then UV 0-200 mJ/cm^2 through 0.4% or 2% C-phycocyanin
# Description: as §1
substance,measurement,setting,value
C-phycocyanin,"cell activity (relative fluorescence intensity, AlamarBlue)",Human dermal fibroblasts [1]; 0.4% C-phycocyanin solution plate,the decrease in cell activity was inhibited
same,"cell activity (relative fluorescence intensity, AlamarBlue)","Human dermal fibroblasts [1]; 2% C-phycocyanin solution plate, compared to no UV irradiation",the cell activity was even enhanced
same,"cell activity (relative fluorescence intensity, AlamarBlue)",Human dermal fibroblasts [2],cell activity was recovered
